{
  "source": "patent US10758534B2",
  "about": "(Vertex Pharmaceuticals Incorporated, priority 2014, dated 2020)",
  "target": "T1, F508del (Homo sapiens, UniProt P13569, DEL508-508)",
  "T1 construct": "expressed in transfected cells",
  "T1 sequence (P13569 with tags, fused parts or gaps DEL508-508)": "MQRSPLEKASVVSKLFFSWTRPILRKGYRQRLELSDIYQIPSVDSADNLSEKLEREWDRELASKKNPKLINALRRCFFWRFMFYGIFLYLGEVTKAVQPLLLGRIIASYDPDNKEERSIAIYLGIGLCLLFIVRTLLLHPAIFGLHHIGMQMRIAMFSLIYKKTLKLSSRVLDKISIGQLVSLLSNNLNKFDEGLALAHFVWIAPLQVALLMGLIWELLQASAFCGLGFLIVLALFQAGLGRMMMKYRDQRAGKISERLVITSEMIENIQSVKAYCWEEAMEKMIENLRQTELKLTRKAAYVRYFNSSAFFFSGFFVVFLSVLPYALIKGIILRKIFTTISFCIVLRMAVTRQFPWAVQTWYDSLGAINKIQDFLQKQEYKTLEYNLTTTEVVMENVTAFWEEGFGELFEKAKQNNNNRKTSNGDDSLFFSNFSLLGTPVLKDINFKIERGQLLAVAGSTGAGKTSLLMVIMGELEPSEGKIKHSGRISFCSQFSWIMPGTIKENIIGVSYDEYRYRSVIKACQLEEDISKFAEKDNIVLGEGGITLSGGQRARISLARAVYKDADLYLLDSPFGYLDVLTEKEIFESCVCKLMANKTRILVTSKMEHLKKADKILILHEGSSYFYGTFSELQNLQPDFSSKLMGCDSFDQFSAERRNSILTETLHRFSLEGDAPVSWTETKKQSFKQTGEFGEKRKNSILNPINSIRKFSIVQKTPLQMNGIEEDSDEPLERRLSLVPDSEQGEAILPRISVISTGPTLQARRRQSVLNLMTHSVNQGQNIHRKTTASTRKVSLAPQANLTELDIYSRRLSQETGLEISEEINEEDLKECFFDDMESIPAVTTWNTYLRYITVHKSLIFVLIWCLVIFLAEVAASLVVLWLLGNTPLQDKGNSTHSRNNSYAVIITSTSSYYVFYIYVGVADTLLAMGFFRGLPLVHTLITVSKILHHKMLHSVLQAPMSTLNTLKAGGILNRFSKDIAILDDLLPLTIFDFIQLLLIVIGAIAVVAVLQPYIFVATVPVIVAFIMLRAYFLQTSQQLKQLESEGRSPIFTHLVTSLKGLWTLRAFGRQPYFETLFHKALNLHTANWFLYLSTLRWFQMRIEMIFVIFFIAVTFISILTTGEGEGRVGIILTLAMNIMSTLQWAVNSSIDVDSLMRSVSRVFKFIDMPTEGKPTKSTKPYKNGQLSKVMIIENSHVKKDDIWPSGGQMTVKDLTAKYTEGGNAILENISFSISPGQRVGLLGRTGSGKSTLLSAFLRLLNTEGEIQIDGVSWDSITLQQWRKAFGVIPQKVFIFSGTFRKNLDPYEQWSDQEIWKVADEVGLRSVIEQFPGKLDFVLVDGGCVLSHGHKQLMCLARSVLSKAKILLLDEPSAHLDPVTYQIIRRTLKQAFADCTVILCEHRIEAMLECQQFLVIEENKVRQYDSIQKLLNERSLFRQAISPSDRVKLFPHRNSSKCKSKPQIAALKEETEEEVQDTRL",
  "experiment": "Protocol 1: membrane potential optical assay (FLIPR III, voltage sensing dye), identification of potentiator compounds",
  "format": "cell-based",
  "settings": "Table 3, compounds of Table 1",
  "how_it_was_run": "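Gating potentiation is read as a membrane-potential fluorescence change (FLIPR III, voltage-sensing dye) after one forskolin addition under a Cl− gradient, with gluconate replacing chloride, pH 7.4. Cells are F508del-expressing NIH3T3 mouse fibroblasts held 24 h at 27 °C and exposed to compound before dye loading.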",
  "data": [
    {"smiles": "CC(C)COc1cc(F)cc(-c2ccc(C(=O)NS(=O)(=O)c3cccc(N)n3)c(OCCC3CCCO3)n2)c1", "note": "(centres unmarked) [Compound 1604, N-[(6-amino-2-pyridyl)sulfonyl]-6-(3-fluoro-5-isobutoxy-phenyl)-2-(2-tetrahydrofuran-2-ylethoxy)pyridine-3-carboxamide]", "values": [
      {"measurement": "EC30", "value": "+++ (“+++” means <3 uM)"}
    ]},
    {"smiles": "CC(C)COc1cc(F)cc(-c2ccc(C(=O)NS(=O)(=O)c3cccc(N)n3)c(OCCc3ccncc3)n2)c1", "note": "[Compound 1605, N-[(6-amino-2-pyridyl)sulfonyl]-6-(3-fluoro-5-isobutoxy-phenyl)-2-[2-(4-pyridyl)ethoxy]pyridine-3-carboxamide]", "values": [
      {"measurement": "EC30", "value": "+++ (“+++” means <3 uM)"}
    ]},
    {"smiles": "CCOc1cccc2c1CN(Cc1c(C)cc(C)cc1C)C2(C)C(=O)NS(=O)(=O)c1cncs1", "note": "(centres unmarked) [Compound 1606, 4-ethoxy-1-methyl-N-thiazol-5-ylsulfonyl-2-[(2,4,6-trimethylphenyl)methyl]isoindoline-1-carboxamide]", "values": [
      {"measurement": "EC30", "value": "+++ (“+++” means <3 uM)"}
    ]},
    {"smiles": "C[C@@H]1CN(c2ncc(F)cc2C(=O)NS(=O)(=O)c2cccc(N)n2)C(C)(C)C1", "note": "[Compound 1607, N-[(6-amino-2-pyridyl)sulfonyl]-5-fluoro-2-[(4S)-2,2,4-trimethylpyrrolidin-1-yl]pyridine-3-carboxamide]", "values": [
      {"measurement": "EC30", "value": "++ (“++” means between 3 uM and 10 uM)"}
    ]},
    {"smiles": "CC(C)COc1cc(F)cc(-c2ccc(C(=O)NS(=O)(=O)N3CCCC(O)C3)c(N3C[C@@H](C)CC3(C)C)n2)c1", "note": "(stereo partly drawn) [Compound 1608, 6-(3-fluoro-5-isobutoxy-phenyl)-N-[(3-hydroxy-1-piperidyl)sulfonyl]-2-[(4S)-2,2,4-trimethylpyrrolidin-1-yl]pyridine-3-carboxamide]", "values": [
      {"measurement": "EC30", "value": "+++ (“+++” means <3 uM)"}
    ]},
    {"smiles": "Cc1cc(C)c(Oc2nc(C3=CC(C)(C)OC3(C)C)ccc2C(=O)NS(=O)(=O)c2cccc(N)n2)c(C)c1", "note": "[Compound 1609, N-[(6-amino-2-pyridyl)sulfonyl]-6-(2,2,5,5-tetramethyl-3-furyl)-2-(2,4,6-trimethylphenoxy)pyridine-3-carboxamide]", "values": [
      {"measurement": "EC30", "value": "+++ (“+++” means <3 uM)"}
    ]},
    {"smiles": "Cc1ccc(-c2ccc(C(=O)NS(=O)(=O)c3cccc(N)n3)c(N3CC(C)CC3(C)C)n2)nc1OCC(C)(C)C", "note": "(centres unmarked) [Compound 1610, N-[(6-amino-2-pyridyl)sulfonyl]-6-[6-(2,2-dimethylpropoxy)-5-methyl-2-pyridyl]-2-(2,2,4-trimethylpyrrolidin-1-yl)pyridine-3-carboxamide]", "values": [
      {"measurement": "EC30", "value": "+++ (“+++” means <3 uM)"}
    ]},
    {"smiles": "CC[C@H]1CN(c2nc(-c3cc(F)cc(OCC(C)C)c3)ccc2C(=O)NS(=O)(=O)c2cccc(N)n2)C(C)(C)C1", "note": "[Compound 1611, N-[(6-amino-2-pyridyl)sulfonyl]-2-[(4R)-4-ethyl-2,2-dimethyl-pyrrolidin-1-yl]-6-(3-fluoro-5-isobutoxy-phenyl)pyridine-3-carboxamide]", "values": [
      {"measurement": "EC30", "value": "+++ (“+++” means <3 uM)"}
    ]},
    {"smiles": "CC[C@@H]1CN(c2nc(-c3cc(F)cc(OCC(C)C)c3)ccc2C(=O)NS(=O)(=O)c2cccc(N)n2)C(C)(C)C1", "note": "[Compound 1612, N-[(6-amino-2-pyridyl)sulfonyl]-2-[(4S)-4-ethyl-2,2-dimethyl-pyrrolidin-1-yl]-6-(3-fluoro-5-isobutoxy-phenyl)pyridine-3-carboxamide]", "values": [
      {"measurement": "EC30", "value": "+++ (“+++” means <3 uM)"}
    ]},
    {"smiles": "C[C@@H]1CN(c2nc(C(C)(C)C)c(/C=C/C(C)(C)C)cc2C(=O)NS(=O)(=O)c2cccc(N)n2)C(C)(C)C1", "note": "[Compound 1613, N-[(6-amino-2-pyridyl)sulfonyl]-6-tert-butyl-5-[(E)-3,3-dimethylbut-1-enyl]-2-[(4S)-2,2,4-trimethylpyrrolidin-1-yl]pyridine-3-carboxamide]", "values": [
      {"measurement": "EC30", "value": "+++ (“+++” means <3 uM)"}
    ]},
    {"smiles": "CC(C)COc1cc(F)cc(-c2ccc(C(=O)NS(=O)(=O)N3CCC[C@@H](N)C3)c(N3C[C@@H](C)CC3(C)C)n2)c1", "note": "[Compound 1614, N—[[(3R)-3-amino-1-piperidyl]sulfonyl]-6-(3-fluoro-5-isobutoxy-phenyl)-2-[(4S)-2,2,4-trimethylpyrrolidin-1-yl]pyridine-3-carboxamide]", "values": [
      {"measurement": "EC30", "value": "+++ (“+++” means <3 uM)"}
    ]},
    {"smiles": "CC(=O)C1CC=C(c2ccc(C(=O)NS(=O)(=O)c3cccc(N)n3)c(Oc3c(C)cc(C)cc3C)n2)CC1", "note": "(centres unmarked) [Compound 1615, 6-(4-acetylcyclohexen-1-yl)-N-[(6-amino-2-pyridyl)sulfonyl]-2-(2,4,6-trimethylphenoxy)pyridine-3-carboxamide]", "values": [
      {"measurement": "EC30", "value": "+++ (“+++” means <3 uM)"}
    ]},
    {"smiles": "CCOc1cccc2c1CN(Cc1c(C)cc(C)cc1C)C2(C)C(=O)NS(=O)(=O)c1cccc(NC(=O)C(F)(F)F)n1", "note": "(centres unmarked) [Compound 1616, 4-ethoxy-1-methyl-N-[[6-[(2,2,2-trifluoroacetyl)amino]-2-pyridyl]sulfonyl]-2-[(2,4,6-trimethylphenyl)methyl]isoindoline-1-carboxamide]", "values": [
      {"measurement": "EC30", "value": "+++ (“+++” means <3 uM)"}
    ]},
    {"smiles": "CCC/C=C/c1cc(C(=O)NS(=O)(=O)c2cccc(N)n2)c(N2C[C@@H](C)CC2(C)C)nc1C(C)(C)C", "note": "[Compound 1617, N-[(6-amino-2-pyridyl)sulfonyl]-6-tert-butyl-5-[(E)-pent-1-enyl]-2-[(4S)-2,2,4-trimethylpyrrolidin-1-yl]pyridine-3-carboxamide]", "values": [
      {"measurement": "EC30", "value": "+++ (“+++” means <3 uM)"}
    ]},
    {"smiles": "CC(C)COc1cc(-c2ccc(C(=O)NS(=O)(=O)c3cccc(N)n3)c(N3C[C@@H](C)CC3(C)C)n2)ccn1", "note": "[Compound 1618, N-[(6-amino-2-pyridyl)sulfonyl]-6-(2-isobutoxy-4-pyridyl)-2-[(4S)-2,2,4-trimethylpyrrolidin-1-yl]pyridine-3-carboxamide]", "values": [
      {"measurement": "EC30", "value": "+++ (“+++” means <3 uM)"}
    ]},
    {"smiles": "CC(C)COc1cc(F)cc(-c2ccc(C(=O)NS(=O)(=O)N3CCCC3)c(N3C[C@@H](C)CC3(C)C)n2)c1", "note": "[Compound 1619, 6-(3-fluoro-5-isobutoxy-phenyl)-N-pyrrolidin-1-ylsulfonyl-2-[(4S)-2,2,4-trimethylpyrrolidin-1-yl]pyridine-3-carboxamide]", "values": [
      {"measurement": "EC30", "value": "+++ (“+++” means <3 uM)"}
    ]},
    {"smiles": "CC(C)COc1ccn(-c2ccc(C(=O)NS(=O)(=O)c3cccc(N)n3)c(N3C[C@@H](C)CC3(C)C)n2)n1", "note": "[Compound 1620, N-[(6-amino-2-pyridyl)sulfonyl]-6-(3-isobutoxypyrazol-1-yl)-2-[(4S)-2,2,4-trimethylpyrrolidin-1-yl]pyridine-3-carboxamide]", "values": [
      {"measurement": "EC30", "value": "+++ (“+++” means <3 uM)"}
    ]},
    {"smiles": "Cc1cccc(C)c1Cn1nc(-c2ccc3c(c2)OCOC3)cc1C(=O)NS(=O)(=O)c1ccccc1", "note": "[Compound 1621, N-(benzenesulfonyl)-5-(4H-1,3-benzodioxin-7-yl)-2-[(2,6-dimethylphenyl)methyl]pyrazole-3-carboxamide]", "values": [
      {"measurement": "EC30", "value": "+++ (“+++” means <3 uM)"}
    ]},
    {"smiles": "COC1CCCCC1Oc1nc(-c2cc(F)cc(OCC(C)C)c2)ccc1C(=O)NS(=O)(=O)c1cccc(N)n1", "note": "(centres unmarked) [Compound 1622, N-[(6-amino-2-pyridyl)sulfonyl]-6-(3-fluoro-5-isobutoxy-phenyl)-2-(2-methoxycyclohexoxy)pyridine-3-carboxamide]", "values": [
      {"measurement": "EC30", "value": "+++ (“+++” means <3 uM)"}
    ]},
    {"smiles": "Cc1nc(OC(C)C)ccc1-c1ccc(C(=O)NS(=O)(=O)c2cccc(N)n2)c(N2[C@H](C)CC[C@@H]2C)n1", "note": "[Compound 1623, N-[(6-amino-2-pyridyl)sulfonyl]-2-[(2R,5S)-2,5-dimethylpyrrolidin-1-yl]-6-(6-isopropoxy-2-methyl-3-pyridyl)pyridine-3-carboxamide]", "values": [
      {"measurement": "EC30", "value": "+++ (“+++” means <3 uM)"}
    ]}
  ]
}
